For this test, the target named is T1, breast cancer resistance protein (BCRP) (Homo sapiens, UniProt Q9UNQ0).
T1 sequence (Q9UNQ0 1-655): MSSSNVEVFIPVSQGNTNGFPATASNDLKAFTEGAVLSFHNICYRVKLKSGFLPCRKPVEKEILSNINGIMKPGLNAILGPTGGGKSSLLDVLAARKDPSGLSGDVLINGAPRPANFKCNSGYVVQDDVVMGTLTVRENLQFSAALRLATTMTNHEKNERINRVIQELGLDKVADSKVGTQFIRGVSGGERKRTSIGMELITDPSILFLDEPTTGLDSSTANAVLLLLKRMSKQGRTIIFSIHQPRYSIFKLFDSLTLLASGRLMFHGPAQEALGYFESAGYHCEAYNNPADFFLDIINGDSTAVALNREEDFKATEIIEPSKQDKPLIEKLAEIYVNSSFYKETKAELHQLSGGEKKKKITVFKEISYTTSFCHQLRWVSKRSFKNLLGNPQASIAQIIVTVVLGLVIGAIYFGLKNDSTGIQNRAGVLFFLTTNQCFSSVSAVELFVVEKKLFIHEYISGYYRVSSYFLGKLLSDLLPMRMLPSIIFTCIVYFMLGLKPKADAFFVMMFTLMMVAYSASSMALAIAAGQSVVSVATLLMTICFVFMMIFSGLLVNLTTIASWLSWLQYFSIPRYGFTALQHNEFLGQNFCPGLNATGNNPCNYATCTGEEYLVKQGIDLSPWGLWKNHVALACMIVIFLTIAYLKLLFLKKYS
Nature of the test: biochemical.

In turn, `CNC(=O)c1cc(Oc2ccc(NC(=O)Nc3ccc(Cl)c(C(F)(F)F)c3)c(F)c2)ccn1` [regorafenib] had a 50% effective concentration (EC50) of 3.59 ± 0.42 µM.

In general, EC50 refers to the midpoint of the concentration-response curve. Low values mean higher potency in that assay, high ones lower potency in that assay.

Source of the values: article PMC8148022 (Cancer letters, 2018).
